Several values for one entry are separate records, joined by “and”; a condition that tells them apart may be missing. Equal entries are not always repeated.
Target: Human CD38 (Homo sapiens (Human), UniProt P28907)
Assay: Determination of IC50 against human CD38 (CD38 Inhibitor Screening Assay Kit, glycohydrolase activity, fluorescence)
Assay type: biochemical
Conditions: CD38 hydrolase enzyme, 30 min preincubation at room temperature, F-NAD substrate, excitation 300 nm, emission 410 nm; read-out: hCD38 IC50
Experimental: CD38 hydrolase buffer (4×) was thawed on ice and 1×CD38 hydrolase buffer was prepared by diluting 4×CD38 hydrolase buffer with water. CD38 hydrolase enzyme was diluted to […] with 1×CD38 hydrolase buffer (10 ng/well). Master mix was prepared by mixing equal volumes of water and CD38 hydrolase buffer (4×) and 10 μl of the mix was added to all the wells. Following master mix addition, 10 μl of the inhibitors and 20 μl of CD38 hydrolase enzyme were added to the wells. For wells designated blank, 10 μl and 20 μl of 1× CD38 hydrolase buffer was added respectively in place of […]. The plate was covered and incubated 30 min at room temperature with slow shaking at 400 rpm. After 30 min incubation, the plate was removed and 10 μl of diluted F-NAD substrate was added to all the wells. The plate is incubated for 10 min, spun at 1200 rpm for 30 secs to remove bubbles and read in Tecan Spark using a fluorometer setting of excitation 300 nm and emission 410 nm. The reading for the blank was subtracted from all the values. IC50 for the test compounds were determined by using Graphpad prism software v7.0.

Chain of Human CD38 (P28907 whole entry): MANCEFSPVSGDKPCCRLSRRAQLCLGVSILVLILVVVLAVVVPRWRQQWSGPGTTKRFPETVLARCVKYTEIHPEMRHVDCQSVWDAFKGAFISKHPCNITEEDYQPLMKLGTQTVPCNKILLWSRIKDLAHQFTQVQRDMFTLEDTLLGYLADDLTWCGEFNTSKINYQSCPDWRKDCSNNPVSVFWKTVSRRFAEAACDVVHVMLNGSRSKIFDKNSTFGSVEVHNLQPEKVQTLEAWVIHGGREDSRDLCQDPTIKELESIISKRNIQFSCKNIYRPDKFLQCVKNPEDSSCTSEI

Row | Compound | IC50
1 | COCCO[C@H]1CC[C@H](NC(=O)c2cc(C(N)=O)nc(-n3ccnc3)n2)CC1 [Ex. 48, 2-(1H-imidazol-1-yl)-N-((1r,4r)-4-(2-methoxyethoxy)cyclohexyl)pyrimidine-4,6-dicarboxamide] | 18 nM
2 | [2H]c1nc([2H])n(-c2nc(C)cc(C(=O)N[C@H]3CC[C@H](OCCOC)CC3)n2)c1[2H] [Ex. 50, 2-(1H-imidazol-1-yl-d3)-N-((1r,4r)-4-(2-methoxyethoxy)cyclohexyl)-6-methylpyrimidine-4-carboxamide] | 14 nM
3 | COCCO[C@H]1CC[C@H](NC(=O)c2cc(C3CC3)nc(-n3ccnc3)n2)CC1 [Ex. 56, 6-cyclopropyl-2-(1H-imidazol-1-yl)-N-((1r,4r)-4-(2-methoxyethoxy)cyclohexyl) pyrimidine-4-carboxamide] | 50 nM
4 | C=Cc1cc(C(=O)N[C@H]2CC[C@H](OCCOC)CC2)nc(-n2ccnc2)c1 [Ex. 57, 6-(1H-imidazol-1-yl)-N-((1r,4r)-4-(2-methoxyethoxy)cyclohexyl)-4-vinylpicolinamide] | 40 nM
5 | COCCO[C@H]1CC[C@H](NC(=O)c2cc(C(F)F)cc(-n3ccnc3)n2)CC1 [Ex. 59, 4-(difluoromethyl)-6-(1H-imidazol-1-yl)-N-((1r,4r)-4-(2-methoxyethoxy)cyclohexyl)picolinamide] | 20.9 nM
6 | COCCO[C@H]1CC[C@H](NC(=O)c2cc(OC)cc(-n3ccnc3)n2)CC1 [Ex. 62, 6-(1H-imidazol-1-yl)-4-methoxy-N-((1r,4r)-4-(2-methoxyethoxy)cyclohexyl) picolinamide] | 86.7 nM

Second part, the compound after the results:

Row | IC50 | Compound
7 | 15 nM | COCCO[C@H]1CC[C@H](NC(=O)c2cc(CO)nc(-n3ccnc3)n2)CC1 [Ex. 49, 6-(hydroxymethyl)-2-(1H-imidazol-1-yl)-N-((1r,4r)-4-(2-methoxyethoxy)cyclohexyl)pyrimidine-4-carboxamide]
8 | 17 nM | COCCO[C@H]1CC[C@H](NC(=O)c2cc(CF)nc(-n3ccnc3)n2)CC1 [Ex. 51, 6-(fluoromethyl)-2-(1H-imidazol-1-yl)-N-((1r,4r)-4-(2-methoxyethoxy)cyclohexyl)pyrimidine-4-carboxamide]
9 | 89 nM | COCCO[C@H]1CC[C@H](NC(=O)c2cc(C(F)F)nc(-n3ccnc3)n2)CC1 [Ex. 52, 6-(Difluoromethyl)-2-(1H-imidazol-1-yl)-N-((1r,4r)-4-(2-methoxyethoxy)cyclohexyl)pyrimidine-4-carboxamide]
10 | 16.6 nM and 8.8 nM | CCS(=O)(=O)N[C@H]1CC[C@H](NC(=O)c2ccnc(-n3ccnc3)n2)CC1 [Ex. 53, N-((1r,4r)-4-(ethylsulfonamido)cyclohexyl)-2-(1H-imidazol-1-yl)pyrimidine-4-carboxamide]
11 | 28 nM | CO[C@]1(C)CC[C@@H](NC(=O)c2ccnc(-n3ccnc3)n2)CC1 [Ex. 54, 2-(1H-imidazol-1-yl)-N-((1r,4r)-4-methoxy-4-methylcyclohexyl)pyrimidine-4-carboxamide]
12 | 16.5 nM | CCO[C@H]1CC[C@H](NC(=O)c2ccnc(-n3ccnc3)n2)CC1 [Ex. 58, N-((1r,4r)-4-ethoxycyclohexyl)-2-(1H-imidazol-1-yl)pyrimidine-4-carboxamide]
13 | 2.4 nM | COCCO[C@H]1CC[C@@H](NC(=O)c2cc(C)nc(-n3ccnc3)n2)CC1 [Ex. 60, 2-(1H-imidazol-1-yl)-N-((1s,4s)-4-(2-methoxyethoxy)cyclohexyl)-6-methylpyrimidine-4-carboxamide]
14 | 227 nM | COCCO[C@H]1C[C@H](NC(=O)c2ccnc(-n3ccnc3)n2)C1 [Ex. 65, 2-(1H-imidazol-1-yl)-N-((1r,3r)-3-(2-methoxyethoxy)cyclobutyl)pyrimidine-4-carboxamide]

From patent publication US12514858B2, “CD38 inhibitors” (Astellas Engineered Small Molecules US, Incorporated, priority 2020, dated 2026)
